Measurements reported in patent publication US10030047B2 (Hoffmann-La Roche Inc., priority 2015, dated 2018).
≈ marks a conversion by molar mass, not a printed value.

test system: A. baumannii strain ATCC19606; test: Minimum inhibitory concentration (MIC) determination, microbroth dilution (CLSI); format: cell-based; settings: Acinetobacter baumannii; A. baumannii ATCC19606; CAMHB; read after 20 hours; >=80% growth inhibition; read-out: ATCC19606 MIC
In short: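 After 20 h at 35±2 °C, MIC taken visually and by OD 600 nm as the lowest concentration giving ≥80% growth inhibition. Bacteria (~5×10^5 CFU/ml) were tested per CLSI microbroth dilution against twofold serial compound dilutions in cation-adjusted Mueller Hinton broth.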

| Compound | MIC [µg/mL] |
| --- | --- |
| COc1cc(-c2cc3c(cn2)Sc2ncccc2CN[C@@H](CCCN)C(=O)N[C@@H](CCCCN)C(=O)N(C)[C@@H](Cc2c[nH]c4ccccc24)C(=O)NC3)ccn1 [Example 205, (7S,10S,13S)-13-((1H-Indol-3-yl)methyl)-10-(4-aminobutyl)-7-(3-aminopropyl)-18-(2-methoxypyridin-4-yl)-12-methyl-6,7,9,10,12,13,15,16-octahydrodipyrido[2,3-b:4′,3′-p][1,5,8,11,14]thiatetraazacycloheptadecine-8,11,14(5H)-trione] | 16 (≈ 20.5 µM) |
| CN1C(=O)[C@H](CCCCN)NC(=O)[C@H](CCCN)NCc2cccnc2Sc2c(Cl)cc(-c3cc(F)nc(F)c3)cc2CNC(=O)[C@@H]1Cc1c[nH]c2ccccc12 [Example 209, (11S,14S,17S)-14-(4-Amino-butyl)-11-(3-amino-propyl)-25-chloro-23-(2,6-difluoro-pyridin-4-yl)-17-(1H-indol-3-ylmethyl)-16-methyl-2-thia-4,10,13,16,19-pentaaza-tricyclo[19.4.0.0*3,8*]pentacosa-1(21),3(8),4,6,22,24-hexaene-12,15,18-trione] | 0.25 (≈ 0.305 µM) |
| CNC(=O)CC[C@@H]1NCc2cccnc2Sc2c(Cl)cc(Cl)cc2CNC(=O)[C@H](Cc2c[nH]c3ccccc23)N(C)C(=O)[C@H](CCCCN)NC1=O [Example 210, 3-[(11S,14S,17S)-14-(4-Amino-butyl)-23,25-dichloro-17-(1H-indol-3-ylmethyl)-16-methyl-12,15,18-trioxo-2-thia-4,10,13,16,19-pentaaza-tricyclo[19.4.0.0*3,8*]pentacosa-1(25),3(8),4,6,21,23-hexaen-11-yl]-N-methyl-propionamide] | 16 (≈ 20.8 µM) |
| CN1C(=O)[C@H](CCCCN)NC(=O)[C@H](CCCN)NCc2cccnc2Sc2c(Cl)cc(-c3ccc(C#N)cc3)cc2CNC(=O)[C@@H]1Cc1c[nH]c2ccccc12 [Example 211, 4-[(11S,14S,17S)-14-(4-Amino-butyl)-11-(3-amino-propyl)-25-chloro-17-(1H-indol-3-ylmethyl)-16-methyl-12,15,18-trioxo-2-thia-4,10,13,16,19-pentaaza-tricyclo[19.4.0.0*3,8*]pentacosa-1(25),3(8),4,6,21,23-hexaen-23-yl]-benzonitrile] | 16 (≈ 19.8 µM) |
| Cc1cc(-c2ccc(Cl)c3c2CNC(=O)[C@H](Cc2c[nH]c4ccccc24)N(C)C(=O)[C@H](CCCCN)NC(=O)[C@H](CCCN)NCc2cccnc2S3)ccn1 [Example 212, (11S,14S,17S)-14-(4-Amino-butyl)-11-(3-amino-propyl)-25-chloro-17-(1H-indol-3-ylmethyl)-16-methyl-22-(2-methyl-pyridin-4-yl)-2-thia-4,10,13,16,19-pentaaza-tricyclo[19.4.0.0*3,8*]pentacosa-1(25),3(8),4,6,21,23-hexaene-12,15,18-trione] | 32 (≈ 40.2 µM) |
| CN1C(=O)[C@H](CCCCN)NC(=O)[C@H](CCCN)NCc2cccnc2Sc2c(Cl)cc(-c3ccncn3)cc2CNC(=O)[C@@H]1Cc1c[nH]c2ccccc12 [Example 213, (11S,14S,17S)-14-(4-Amino-butyl)-11-(3-amino-propyl)-25-chloro-17-(1H-indol-3-ylmethyl)-16-methyl-23-pyrimidin-4-yl-2-thia-4,10,13,16,19-pentaaza-tricyclo[19.4.0.0*3,8*]pentacosa-1(21),3,5,7,22,24-hexaene-12,15,18-trione] | 2 (≈ 2.55 µM) |
| CN1C(=O)[C@H](CCCCN)NC(=O)[C@H](CCCN)NCc2cccnc2Sc2c(Cl)cc(-c3ccc(S(N)(=O)=O)cc3)cc2CNC(=O)[C@@H]1Cc1c[nH]c2ccccc12 [Example 214, 4-[(11S,14S,17S)-14-(4-Amino-butyl)-11-(3-amino-propyl)-25-chloro-17-(1H-indol-3-ylmethyl)-16-methyl-12,15,18-trioxo-2-thia-4,10,13,16,19-pentaaza-tricyclo[19.4.0.0*3,8*]pentacosa-1(21),3,5,7,22,24-hexaen-23-yl]-benzenesulfonamide] | 0.25 (≈ 0.291 µM) |
| CN1C(=O)[C@H](CCCCN)NC(=O)[C@H](CCC(N)=O)NCc2cccnc2Sc2c(Cl)ccc(-c3cccnc3)c2CNC(=O)[C@@H]1Cc1c[nH]c2ccccc12 [Example 221, 3-[(11S,14S,17S)-14-(4-Amino-butyl)-25-chloro-17-(1H-indol-3-ylmethyl)-16-methyl-12,15,18-trioxo-22-pyridin-3-yl-2-thia-4,10,13,16,19-pentaaza-tricyclo[19.4.0.0*3,8*]pentacosa-1(25),3(8),4,6,21,23-hexaen-11-yl]-propionamide] | 0.25 (≈ 0.314 µM) |
| CN1C(=O)[C@H](CCCCN)NC(=O)[C@H](CCCN)NCc2cccnc2Sc2c(Cl)ccc(-c3ccnc(F)c3)c2CNC(=O)[C@@H]1Cc1c[nH]c2ccccc12 [Example 222, (11S,14S,17S)-14-(4-Amino-butyl)-11-(3-amino-propyl)-25-chloro-22-(2-fluoro-pyridin-4-yl)-17-(1H-indol-3-ylmethyl)-16-methyl-2-thia-4,10,13,16,19-pentaaza-tricyclo[19.4.0.0*3,8*]pentacosa-1(25),3(8),4,6,21,23hexaene-12,15,18-trione] | 0.12 (≈ 0.15 µM) |
| CN1C(=O)[C@H](CCCCN)NC(=O)[C@H](CCCN)NCc2cccnc2Sc2c(Cl)cc(-c3ccnc(N)c3)cc2CNC(=O)[C@@H]1Cc1c[nH]c2ccccc12 [Example 223, (11S,14S,17S)-14-(4-Amino-butyl)-11-(3-amino-propyl)-23-(2-amino-pyridin-4-yl)-25-chloro-17-(1H-indol-3-ylmethyl)-16-methyl-2-thia-4,10,13,16,19-pentaaza-tricyclo[19.4.0.0*3,8*]pentacosa-1(21),3,5,7,22,24-hexaene-12,15,18-trione] | 1 (≈ 1.25 µM) |
| CN1C(=O)[C@H](CCCCN)NC(=O)[C@H](CCCN)NCc2cccnc2Sc2c(Cl)ccc(-c3ccc(S(N)(=O)=O)cc3)c2CNC(=O)[C@@H]1Cc1c[nH]c2ccccc12 [Example 224, 4-[(11S,14S,17S)-14-(4-Amino-butyl)-11-(3-amino-propyl)-25-chloro-17-(1H-indol-3-ylmethyl)-16-methyl-12,15,18-trioxo-2-thia-4,10,13,16,19-pentaaza-tricyclo[19.4.0.0*3,8*]pentacosa-1(21),3,5,7,22,24-hexaen-22-yl]-benzenesulfonamide] | 0.12 (≈ 0.139 µM) |
| CN1C(=O)[C@H](CCCCN)NC(=O)[C@H](CCCN)NCc2cccnc2Sc2c(Cl)ccc(-c3ccc(S(C)(=O)=O)cc3)c2CNC(=O)[C@@H]1Cc1c[nH]c2ccccc12 [Example 225, (11S,14S,17S)-14-(4-Amino-butyl)-11-(3-amino-propyl)-25-chloro-17-(1H-indol-3-ylmethyl)-22-(4-methanesulfonyl-phenyl)-16-methyl-2-thia-4,10,13,16,19-pentaaza-tricyclo[19.4.0.0*3,8*]pentacosa-1(21),3,5,7,22,24-hexaene-12,15,18-trione] | 0.12 (≈ 0.14 µM) |
| CN1C(=O)[C@H](CCCCN)NC(=O)[C@H](CCCN)NCc2cccnc2Sc2c(Cl)cc(-n3ccnc3)cc2CNC(=O)[C@@H]1Cc1c[nH]c2ccccc12 [Example 227, (11S,14S,17S)-14-(4-Amino-butyl)-11-(3-amino-propyl)-25-chloro-23-imidazol-1-yl-17-(1H-indol-3-ylmethyl)-16-methyl-2-thia-4,10,13,16,19-pentaaza-tricyclo[19.4.0.0*3,8*]pentacosa-1(21),3,5,7,22,24-hexaene-12,15,18-trione] | 4 (≈ 5.19 µM) |
| CN1C(=O)[C@H](CCCCN)NC(=O)[C@H](CCCN)NCc2cccnc2Sc2c(Cl)ccc(-c3ccc(N)nc3)c2CNC(=O)[C@@H]1Cc1c[nH]c2ccccc12 [Example 228, (11S,14S,17S)-14-(4-Amino-butyl)-11-(3-amino-propyl)-22-(6-amino-pyridin-3-yl)-25-chloro-17-(1H-indol-3-ylmethyl)-16-methyl-2-thia-4,10,13,16,19-pentaaza-tricyclo[19.4.0.0*3,8*]pentacosa-1(21),3,5,7,22,24-hexaene-12,15,18-trione] | 0.12 (≈ 0.15 µM) |
| CN1C(=O)[C@H](CCCCN)NC(=O)[C@H](CCCN)NCc2cccnc2Sc2c(Cl)cc(-c3ccnc(C#N)c3)cc2CNC(=O)[C@@H]1Cc1c[nH]c2ccccc12 [Example 229, 4-[(11S,14S,17S)-14-(4-Amino-butyl)-11-(3-amino-propyl)-25-chloro-17-(1H-indol-3-ylmethyl)-16-methyl-12,15,18-trioxo-2-thia-4,10,13,16,19-pentaaza-tricyclo[19.4.0.0*3,8*]pentacosa-1(21),3,5,7,22,24-hexaen-23-yl]-pyridine-2-carbonitrile] | 1 (≈ 1.24 µM) |
| CN1C(=O)[C@H](CCCCN)NC(=O)[C@H](CCCN)NCc2cccnc2Sc2c(Cl)ccc(-c3ccc(O)nc3)c2CNC(=O)[C@@H]1Cc1c[nH]c2ccccc12 [Example 230, (11S,14S,17S)-14-(4-Amino-butyl)-11-(3-amino-propyl)-25-chloro-22-(6-hydroxy-pyridin-3-yl)-17-(1H-indol-3-ylmethyl)-16-methyl-2-thia-4,10,13,16,19-pentaaza-tricyclo[19.4.0.0*3,8*]pentacosa-1(21),3,5,7,22,24-hexaene-12,15,18-trione] | 0.12 (≈ 0.15 µM) |
| CN1C(=O)[C@H](CCCCN)NC(=O)[C@H](CCC(N)=O)NCc2cccnc2Sc2c(Cl)ccc(-c3ccnc(F)c3)c2CNC(=O)[C@@H]1Cc1c[nH]c2ccccc12 [Example 231, 3-[(11S,14S,17S)-14-(4-Amino-butyl)-25-chloro-22-(2-fluoro-pyridin-4-yl)-17-(1H-indol-3-ylmethyl)-16-methyl-12,15,18-trioxo-2-thia-4,10,13,16,19-pentaaza-tricyclo[19.4.0.0*3,8*]pentacosa-1(21),3,5,7,22,24-hexaen-11-yl]-propionamide] | 1 (≈ 1.23 µM) |
| CN1C(=O)[C@H](CCCCN)NC(=O)[C@H](CCCN)NCc2cccnc2Sc2c(Cl)cc(-c3cc[nH]c3)cc2CNC(=O)[C@@H]1Cc1c[nH]c2ccccc12 [Example 232, (11S,14S,17S)-14-(4-Amino-butyl)-11-(3-amino-propyl)-25-chloro-17-(1H-indol-3-ylmethyl)-16-methyl-23-(1H-pyrrol-3-yl)-2-thia-4,10,13,16,19-pentaaza-tricyclo[19.4.0.0*3,8*]pentacosa-1(25),3(8),4,6,21,23-hexaene-12,15,18-trione] | 1 (≈ 1.3 µM) |
